Values after ≈ are worked out from the molar mass of the structure shown. Active and inactive are the calls of the source. No cut-off for these calls is given here.
Assays:
[1] = Selectivity index, ratio of CC50 for cytotoxicity against human A549 cells assessed as cell viability to EC50 for antiviral activity against Coxsackievirus A9 infected in human A549 cells assessed as inhibition of virus-induced cytopathic effect; format: toxicity, cell-based; conditions: read-out: Ratio CC50/EC50
Coxsackievirus A9 [2] = assay: Antiviral activity against Coxsackievirus A9 infected in human A549 cells assessed as inhibition of virus-induced cytopathic effect pre-infected with virus for 1 hr followed by compound addition and measured after 24 hrs by crystal violet staining based analysis; format: functional, organism-based; conditions: Enterovirus B
Coxsackievirus A9 [3] = assay: Antiviral activity against Coxsackievirus A9 infected in human A549 cells assessed as increase in cell viability at 10 uM pre-infected with virus for 1 hr followed by compound addition and measured after 24 hrs by crystal violet staining based analysis; format: functional, organism-based
[4] = Cytotoxicity against human A549 cells assessed as cell viability; format: toxicity, cell-based
Coxsackievirus A9 [5] = assay: Antiviral activity against Coxsackievirus A9 infected in human A549 cells assessed as increase in cell viability at 100 uM pre-infected with virus for 1 hr followed by compound addition and measured after 24 hrs by crystal violet staining based analysis relative to control; format: functional
[6] = Kinetic solubility of compound by HPLC analysis; format: physicochemical; conditions: read-out: Kinetic_solubility
[7] = Metabolic stability in human liver microsome assessed as intrinsic clearance preincubated with compound for 10 mins followed by NADP addition and measured after 60 mins by LC-MS/MS analysis; format: ADME; conditions: liver microsomes, time 70 min, read-out: CLH
[8] = Metabolic stability in human liver microsome assessed as half life preincubated with compound for 10 mins followed by NADP addition and measured after 60 mins by LC-MS/MS analysis; format: ADME; conditions: liver microsomes, time 70 min
[9] = Metabolic stability in CD-1 mouse liver microsome assessed as intrinsic clearance preincubated with compound for 10 mins followed by NADP addition and measured after 60 mins by LC-MS/MS analysis; format: ADME; conditions: liver microsomes, time 70 min, read-out: CLH
[10] = Metabolic stability in CD-1 mouse liver microsome assessed as half life preincubated with compound for 10 mins followed by NADP addition and measured after 60 mins by LC-MS/MS analysis; format: ADME; conditions: liver microsomes, time 70 min
[11] = Distribution coefficient, log D of the compound by HPLC analysis; format: physicochemical; conditions: octanol/water
Coxsackievirus A9 [12] = assay: Antiviral activity against Coxsackievirus A9 infected in human A549 cells assessed as increase in cell viability at 5 uM pre-infected with virus for 1 hr followed by compound addition and measured after 24 hrs by crystal violet staining based analysis relative to control; format: functional
Coxsackievirus A9 [13] = assay: Antiviral activity against Coxsackievirus A9 infected in human A549 cells assessed as inhibition of virus-induced cytopathic effect at 5 uM pre-infected with virus for 1 hr followed by compound addition and measured after 24 hrs by crystal violet staining based analysis relative to control; format: functional; design: scale not given: the % may be the effect or the level left

EC50 (Coxsackievirus A9 [2]) | solubility kinetic [6] | microsomal CLint [7] | half-life [8] | microsomal CLint [9] | half-life [10] | logD [11] | SMILES | selectivity ratio [1] | Activity (Coxsackievirus A9 [3]) | CC50 [4] | Activity (Coxsackievirus A9 [5]) | Activity (Coxsackievirus A9 [12]) | Activity (Coxsackievirus A9 [13])
7.84 µM |  |  |  |  |  |  | COc1ccccc1CNc1ccc(CN2CCN(C)CC2)cc1 | 45.9 | Active | 360 µM | 40% |  | 
1.06 µM | 0.21 mg/mL (≈ 578 µM) | 41.2 µL/min/mg | 33.7 min | 108 µL/min/mg | 12.8 min |  | CN1CCN(Cc2ccc(NCc3ccc(C(F)(F)F)cc3)cc2)CC1 | 74.1 | Active | 78.6 µM | ~60% |  | 
5.84 µM | 0.22 mg/mL (≈ 702 µM) |  |  |  |  | 1.93 | CN1CCN(Cc2ccc(NCc3cccc(F)c3)cc2)CC1 | 38 | Active | 222 µM | ~70% |  | 
6.66 µM | 0.26 mg/mL (≈ 830 µM) |  |  |  |  | 2.05 | CN1CCN(Cc2ccc(NCc3ccccc3F)cc2)CC1 | 52.8 | Active | 351 µM | ~70% |  | 
10.5 µM | 0.21 mg/mL (≈ 645 µM) |  |  |  |  | 1.81 | COc1ccc(CNc2ccc(CN3CCN(C)CC3)cc2)cc1 | 36 | Active | 376 µM | 60% |  | 
1.27 µM | 0.22 mg/mL (≈ 667 µM) | 66.4 µL/min/mg | 20.9 min | 199 µL/min/mg | 7 min | 2.34 | CN1CCN(Cc2ccc(NCc3ccc(Cl)cc3)cc2)CC1 | 90.1 | Active | 114 µM |  | 90% | 100%
7.98 µM | 0.22 mg/mL (≈ 640 µM) |  |  |  |  | 2.27 | CN1CCN(Cc2ccc(NC(=O)c3ccc(Cl)cc3)cc2)CC1 | > 125 |  | > 1000 µM |  |  | 
0.64 µM | 0.21 mg/mL (≈ 565 µM) |  |  |  |  |  | CN1CCN(Cc2ccc(NCc3ccc(-c4ccccc4)cc3)cc2)CC1 | 24.7 | Active | 15.8 µM |  | 60% | 100%
1.07 µM | 0.26 mg/mL (≈ 674 µM) |  |  |  |  |  | CN1CCN(Cc2ccc(NC(=O)c3ccc(-c4ccccc4)cc3)cc2)CC1 | 134 |  | 144 µM |  |  | 
6.8 µM | 0.24 mg/mL (≈ 724 µM) |  |  |  |  | 1.9 | CN1CCN(Cc2ccc(NCc3ccc(F)cc3F)cc2)CC1 | 29.5 | Active | 201 µM | ~70% |  | 
2.34 µM | 0.2 mg/mL (≈ 638 µM) |  |  |  |  | 1.94 | CN1CCN(Cc2ccc(NCc3ccc(F)cc3)cc2)CC1 | 155 | Active | 364 µM | ~70% |  | 
4.11 µM | 0.22 mg/mL (≈ 664 µM) |  |  |  |  | 1.98 | CN1CCN(Cc2ccc(NCc3ccc(F)c(F)c3)cc2)CC1 | 52.2 | Active | 215 µM | ~70% |  | 

— ChEMBL document CHEMBL6120944, “SAR Analysis of Novel Coxsackie virus A9 Capsid Binders” (J Med Chem, 2024)
